Data set [1] addresses T1, Catechol O-methyltransferase (Rattus norvegicus, UniProt P22734).
T1 sequence (P22734 whole entry): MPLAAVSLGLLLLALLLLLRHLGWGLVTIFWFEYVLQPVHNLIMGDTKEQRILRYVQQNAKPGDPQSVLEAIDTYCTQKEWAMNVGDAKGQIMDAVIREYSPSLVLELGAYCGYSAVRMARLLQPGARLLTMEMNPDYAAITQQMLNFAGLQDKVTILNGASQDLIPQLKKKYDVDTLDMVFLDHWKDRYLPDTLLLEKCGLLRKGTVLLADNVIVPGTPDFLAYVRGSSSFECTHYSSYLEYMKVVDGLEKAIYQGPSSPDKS
The data set is described as follows: In vitro inhibitory activity against catechol O-methyltransferase of rat brain using 3,4-dihydroxybenzoic acid as the substrate.

In data set [2] the target is T2, Amine oxidase [flavin-containing] B (Rattus norvegicus, UniProt P19643).
T2 sequence (P19643 whole entry): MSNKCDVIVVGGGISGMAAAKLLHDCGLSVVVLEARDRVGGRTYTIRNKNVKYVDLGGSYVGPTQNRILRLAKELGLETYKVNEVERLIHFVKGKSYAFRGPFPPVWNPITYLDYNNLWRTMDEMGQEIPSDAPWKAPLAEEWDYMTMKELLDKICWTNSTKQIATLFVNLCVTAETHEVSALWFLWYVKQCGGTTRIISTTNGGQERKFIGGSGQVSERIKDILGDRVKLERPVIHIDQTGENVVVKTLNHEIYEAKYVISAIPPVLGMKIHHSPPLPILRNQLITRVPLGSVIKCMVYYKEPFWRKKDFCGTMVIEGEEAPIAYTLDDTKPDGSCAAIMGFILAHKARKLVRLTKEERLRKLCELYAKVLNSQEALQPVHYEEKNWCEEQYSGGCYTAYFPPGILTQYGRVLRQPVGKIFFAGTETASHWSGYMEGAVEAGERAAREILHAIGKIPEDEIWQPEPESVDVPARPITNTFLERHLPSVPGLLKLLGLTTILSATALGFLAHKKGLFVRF
The data set is described as follows: Inhibitory activity against the Monoamine oxidase B.

Data set [3] concerns the target T3, Amine oxidase [flavin-containing] A (Mus musculus, UniProt Q64133).
T3 sequence (Q64133 whole entry): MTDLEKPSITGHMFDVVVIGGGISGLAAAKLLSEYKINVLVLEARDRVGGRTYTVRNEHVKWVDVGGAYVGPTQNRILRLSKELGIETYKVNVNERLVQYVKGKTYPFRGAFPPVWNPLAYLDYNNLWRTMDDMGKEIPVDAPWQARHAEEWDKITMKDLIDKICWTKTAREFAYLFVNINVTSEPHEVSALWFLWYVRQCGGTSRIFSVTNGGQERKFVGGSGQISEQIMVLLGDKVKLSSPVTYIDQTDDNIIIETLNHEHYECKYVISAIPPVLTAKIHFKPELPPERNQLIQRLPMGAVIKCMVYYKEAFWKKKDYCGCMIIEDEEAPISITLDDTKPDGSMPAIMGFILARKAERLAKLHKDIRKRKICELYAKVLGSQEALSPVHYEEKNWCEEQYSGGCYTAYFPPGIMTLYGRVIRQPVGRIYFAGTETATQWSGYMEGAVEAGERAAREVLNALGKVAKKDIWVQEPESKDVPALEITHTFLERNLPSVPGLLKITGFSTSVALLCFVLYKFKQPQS
In words: Inhibitory activity against the Monoamine oxidase A.

Another data set deals with T4, Tyrosine 3-monooxygenase (Bos taurus, UniProt P17289).
T4 sequence (P17289 whole entry): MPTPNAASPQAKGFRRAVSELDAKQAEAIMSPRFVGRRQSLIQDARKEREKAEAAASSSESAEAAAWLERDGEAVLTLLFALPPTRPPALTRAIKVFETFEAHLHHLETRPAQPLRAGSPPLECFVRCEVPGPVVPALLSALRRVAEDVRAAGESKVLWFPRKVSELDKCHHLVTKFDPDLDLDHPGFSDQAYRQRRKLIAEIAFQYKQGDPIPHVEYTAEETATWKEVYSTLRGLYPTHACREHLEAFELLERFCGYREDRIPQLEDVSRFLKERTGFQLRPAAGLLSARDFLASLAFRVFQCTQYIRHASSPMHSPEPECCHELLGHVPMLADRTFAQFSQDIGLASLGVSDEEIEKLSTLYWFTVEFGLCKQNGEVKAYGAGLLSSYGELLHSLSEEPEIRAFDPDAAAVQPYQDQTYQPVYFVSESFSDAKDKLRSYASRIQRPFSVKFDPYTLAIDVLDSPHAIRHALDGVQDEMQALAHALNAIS
The data set is described as follows: Inhibitory activity against the tyrosine hydroxylase.

For data set [4], the target named is T5, Aromatic-L-amino-acid decarboxylase (Sus scrofa, UniProt P80041).
T5 sequence (P80041 whole entry): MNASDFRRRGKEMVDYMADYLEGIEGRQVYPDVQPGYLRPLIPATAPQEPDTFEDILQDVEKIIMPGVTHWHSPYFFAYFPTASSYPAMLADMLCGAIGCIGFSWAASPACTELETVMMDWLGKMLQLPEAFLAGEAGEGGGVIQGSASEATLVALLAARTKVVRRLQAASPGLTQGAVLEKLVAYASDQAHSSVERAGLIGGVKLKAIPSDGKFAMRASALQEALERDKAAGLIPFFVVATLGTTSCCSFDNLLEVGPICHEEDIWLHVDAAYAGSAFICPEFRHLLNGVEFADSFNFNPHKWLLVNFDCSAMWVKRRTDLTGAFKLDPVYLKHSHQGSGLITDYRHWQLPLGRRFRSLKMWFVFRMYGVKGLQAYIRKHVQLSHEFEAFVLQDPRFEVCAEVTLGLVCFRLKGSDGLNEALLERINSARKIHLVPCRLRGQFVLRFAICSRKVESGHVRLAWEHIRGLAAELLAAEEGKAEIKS
The data set is described as follows: Inhibitory activity against the dopamine decarboxylase.

The target of data set [5] is T6, Dopamine beta-hydroxylase (Homo sapiens, UniProt P09172).
T6 sequence (P09172 whole entry): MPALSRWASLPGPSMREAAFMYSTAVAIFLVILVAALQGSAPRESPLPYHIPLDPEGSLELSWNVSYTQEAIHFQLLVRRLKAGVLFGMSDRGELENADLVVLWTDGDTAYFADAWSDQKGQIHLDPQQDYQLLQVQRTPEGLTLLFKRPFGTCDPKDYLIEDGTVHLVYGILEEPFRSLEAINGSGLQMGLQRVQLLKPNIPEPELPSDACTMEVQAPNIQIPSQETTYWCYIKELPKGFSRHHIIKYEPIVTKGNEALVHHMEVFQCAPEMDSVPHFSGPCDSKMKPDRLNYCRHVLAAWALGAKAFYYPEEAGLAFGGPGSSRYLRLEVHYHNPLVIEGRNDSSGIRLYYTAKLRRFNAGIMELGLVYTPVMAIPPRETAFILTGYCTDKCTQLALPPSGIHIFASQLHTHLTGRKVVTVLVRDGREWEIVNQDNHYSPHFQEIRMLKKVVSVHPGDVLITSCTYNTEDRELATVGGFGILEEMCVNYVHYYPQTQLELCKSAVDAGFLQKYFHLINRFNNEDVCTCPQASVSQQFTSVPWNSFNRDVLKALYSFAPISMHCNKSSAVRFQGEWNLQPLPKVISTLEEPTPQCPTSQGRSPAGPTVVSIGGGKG
In words: Inhibitory activity against the dopamine beta hydroxylase.

Data set [6] can be described thus: Inhibitory activity against Phenol sulfotransferase.
The species entered for data set [7] is Rattus norvegicus. In words: Compound was tested for acute oral toxicity in Wistar rats. The class given is organism-based. As to conditions: in vivo.
The subject of data set [8] is Rattus norvegicus. The data set is described as follows: Inhibition of formation of 3OMD in rat serum by 80 %, when compound was administered in combination with L-Dopa and carbidopa. It counts as functional.

Drawing on ChEMBL document CHEMBL1124446, “Synthesis of some novel potent and selective catechol O-methyltransferase inhibitors” (J Med Chem, 1989), this text covers IC50, Toxicity and Oral dose for 29 compounds.

`N#CC(C#N)=Cc1cc(O)c(O)c([N+](=O)[O-])c1` had an IC50 in [1] of 20 nM.

With `O=Cc1cc(O)c(O)c(C(F)(F)F)c1`, half-maximal inhibition in data set [1] (IC50) was put at 2300 nM. In data set [1], `CC(=O)/C(C)=C/c1cc(O)c(O)c([N+](=O)[O-])c1` came in with an IC50 of 12 nM.

As to `N#Cc1cc(C(=O)NC23CC4CC(CC(C4)C2)C3)cc(O)c1O`, in [1], the half-inhibitory concentration (IC50) amounted to 90 nM. On to `CN(C)C(=O)/C(C#N)=C/c1cc(O)c(O)c([N+](=O)[O-])c1`, for which 18 nM corresponded to half-maximal inhibition in [1] (IC50). On the same count and under the same terms, the same measure for `O=C(NC12CC3CC(CC(C3)C1)C2)c1cc(O)c(O)c(Cl)c1`: 400 nM.

Regarding `COc1cc(C(=O)/C=C/c2cc(O)c(O)c([N+](=O)[O-])c2)cc(OC)c1OC`, the IC50 in [2] was above 50000 nM; in data set [3], above 50000 nM; at Tyrosine 3-monooxygenase, 21000 nM; in data set [1], 5 nM; in [4] it was above 50000 nM; in data set [5] it was above 50000 nM. In data set [1], `O=C(O)CCCCc1cc(O)c(O)c(Cl)c1` had an IC50 of 8000 nM. Take `CC(=O)c1cc(O)c(O)c([N+](=O)[O-])c1`: the IC50 in [1] was found to be 16 nM; in [6], 125000 nM. The compound `O=C(NC12CC3CC(CC(C3)C1)C2)c1ccc(O)c(O)c1Cl` registered an IC50 in data set [1] of 12000 nM. Compound `N#Cc1cc(C=O)cc(O)c1O` came in with an IC50 in data set [1] of 160 nM. `O=C(NC12CC3CC(CC(C3)C1)C2)c1cc(O)c(O)cc1Cl` came in with an IC50 in data set [1] of 2700 nM.

In data set [1], `N#Cc1cc(O)c(O)c([N+](=O)[O-])c1` had an IC50 of 30 nM.

As to `O=C(/C=C/c1cc(O)c(O)c([N+](=O)[O-])c1)c1ccccc1`, the IC50 in data set [2] is above 50000 nM; in data set [3], above 50000 nM; against Tyrosine 3-monooxygenase, 50000 nM; in [1], 6 nM; in [4], above 50000 nM; in data set [5], above 50000 nM. On to `O=C(O)c1cc(O)c(O)c([N+](=O)[O-])c1`, for which, in data set [1], the midpoint of inhibition, the IC50, lay at 620 nM. As to `O=C1/C(=C/c2cc(O)c(O)c([N+](=O)[O-])c2)CC/C1=C\c1cc(O)c(O)c([N+](=O)[O-])c1`, the half-maximal inhibitory concentration (IC50) in data set [1] is 3 nM. Regarding `O=C(NC12CC3CC(CC(C3)C1)C2)c1cc(O)c(O)c([N+](=O)[O-])c1`, it took 19 nM to reach half-maximal inhibition in [1] (IC50). For the compound `O=C(NC12CC3CC(CC(C3)C1)C2)c1cc(O)c(O)cc1[N+](=O)[O-]`, the IC50 in data set [1] is 1100 nM.

`CCOC(=O)/C(C#N)=C/c1cc(O)c(O)c([N+](=O)[O-])c1` displayed an IC50 in [1] of 50 nM. With `CC(C)C(=O)c1ccc(O)c(O)c1`, the concentration for half-maximal inhibition (IC50) in data set [2] was above 50000 nM; in [3], above 50000 nM; against Tyrosine 3-monooxygenase it was 24000 nM; in data set [1], 6000 nM; in [4] it was above 50000 nM; in [5], above 50000 nM.

`O=C(O)CCCCc1cc(O)c(O)c([N+](=O)[O-])c1` registered an IC50 in data set [1] of 90 nM. For the compound `CS(=O)(=O)c1cc(C=O)cc(O)c1O`, the IC50 in data set [1] stood at 20000 nM. Still for that read-out and setting: for `CC(=O)C(=Cc1cc(O)c(O)c(C(F)(F)F)c1)C(C)=O` the value was 1500 nM. Compound `O=[N+]([O-])c1cc(Cl)cc(O)c1O` returned an IC50 in [1] of 25 nM. For `O=[N+]([O-])c1cc(CO)cc(O)c1O`, in data set [1], 180 nM corresponded to half-maximal inhibition (IC50). Same read-out and setting: the same measure for `O=Cc1cc(O)c(O)c(C=O)c1`: 160 nM; for `O=Cc1cc(O)c(O)c([N+](=O)[O-])c1` [3,4-DIHYDROXY-5-NITROBENZALDEHYDE]: 24 nM.

For `O=[N+]([O-])c1cc(O)c(O)c([N+](=O)[O-])c1` [3,5-DINITROCATECHOL (OR-486)], the IC50 in data set [6] amounted to 150000 nM. In the data set filed under Rattus norvegicus [7], `CC(=O)C(=Cc1cc(O)c(O)c([N+](=O)[O-])c1)C(C)=O` [NITECAPONE] returned a Toxicity of 2500 mg/kg. For the same compound, the IC50 in [1] worked out at 18 nM; in data set [6] it was 210000 nM. Besides, the Oral dose in the data set on Rattus norvegicus [8] came to 30 mg/kg.

A word on the IC50: it is the concentration needed to halve the response being measured. Low values mean inhibition by little substance, high ones a need for much substance.
